tested on: PC-3 cells; assay: Cell proliferation assay (BrdU incorporation); format: cell-based; conditions: Homo sapiens, serum-free, 1.25 μM, relative to vehicle control (1 unit), 18 h + 6 h BrdU, read-out: Units of BrdU incorporation
Experimental: PC-3 cancer cell lines were propagated in D-MEM (Gibco 21885) supplemented with 10% Foetal calf serum. 15000 cells per well were seeded in 96 well plates and incubated overnight. The culture media was changed to serum-free D-MEM for 24 h. The culture media was then changed to serum free D-MEM containing either 0.2% DMSO as vehicle control or 0.3, 0.6, 1.2 or 2.5 μM (or 1.25, 2.5, 5, 10 μM (as indicated in Table 1 below)) of the selected compounds of Example 1 to Example 8 in 0.2% DMSO in quadruplicate. After 18 h incubation, BrdU was added according to manufacturer's recommendations. After 6 h incubation in the presence of BrdU, the culture media was removed and BrdU incorporation was measured using “Cell Proliferation ELISA, BrdU colorimetric” Roche (11647229001) according to manufacturer's recommendations.
Proliferation rate of PC-3 cells are reduced by relevant concentrations of the test compounds as measured by BrdU incorporation.

| Structure (SMILES) | activity at 1.25 µM [%] |
| --- | --- |
| O=c1[nH]s/c(=N\c2ccc(Cl)c(Cl)c2)n1C(c1ccccc1)c1ccccc1 [Example 6, 4-Benzhydryl-5-(3,4-dichlorophenyl)imino-1,2,4-thiadiazolidin-3-one] | 42 |
| O=c1nc(Nc2ccc(Cl)c(Cl)c2)sn1Cc1ccc(F)c(F)c1 [Example 8c, 1,5-(3,4-dichlorophenylamino)-2-(3,4-difluorobenzyl)-[1,2,4]thiadiazol-3-one] | 7 |

same assay, conditions: Homo sapiens, serum-free, 2.5 μM, relative to vehicle control (1 unit), 18 h + 6 h BrdU, read-out: Units of BrdU incorporation

| Structure (SMILES) | activity at 2.5 µM [%] |
| --- | --- |
| O=C(Nc1nc(=O)n(Cc2ccc(F)cc2)s1)c1ccc(OC(F)(F)F)cc1 [Example 4n, N-[2-[(4-fluorophenyl)methyl]-3-oxo-1,2,4-thiadiazol-5-yl]-4-(trifluoromethoxy)-benzamide] | 17 |
| COc1ccc(Cn2sc(Nc3ccc(Cl)c(Cl)c3)nc2=O)cc1 [Example 8a, 1,5-(3,4-Dichlorophenylamino)-2-(4-methoxybenzyl)-[1,2,4]thiadiazol-3-one] | 4 |
| O=c1nc(Nc2ccc(Cl)c(Cl)c2)sn1Cc1ccc(Cl)cc1 [Example 8b, 1,5-(3,4-dichlorophenylamino)-2-(4-chlorobenzyl)-[1,2,4]thiadiazol-3-one] | 18 |

same assay, conditions: Homo sapiens, serum-free, 5 μM, relative to vehicle control (1 unit), 18 h + 6 h BrdU, read-out: Units of BrdU incorporation

| Structure (SMILES) | activity at 5 µM [%] |
| --- | --- |
| O=c1[nH]s/c(=N\c2ccc(Cl)c(Cl)c2)n1Cc1ccccc1 [Example 2e] | 17 |
| O=C(Nc1nc(=O)n(C2(c3ccc(F)cc3)CC2)s1)c1ccc(Cl)c(Cl)c1 [Example 4i, 3,4-dichloro-N-[2-[1-(4-fluorophenyl)cyclopropyl]-3-oxo-1,2,4-thiadiazol-5-yl]benzamide] | 10 |
| O=c1nc(Nc2ccc(Cl)c(Cl)c2)sn1CCc1ccccc1 [Example 8f, 5-(3,4-dichlorophenylamino)-2-phenethyl-[1,2,4]thiadiazol-3-one] | 8 |
| O=c1nc(Nc2ccc(C(F)(F)F)cc2)sn1Cc1ccc(F)c(F)c1 [Example 8k, 2-[(3,4-difluorophenyl)methyl]-5-[[4-(trifluoromethyl)phenyl]amino]-1,2,4-thiadiazol-3-one] | 4 |
| O=c1nc(Nc2ccc(OC(F)(F)F)cc2)sn1Cc1ccc(F)c(F)c1 [Example 8l, 2-[(3,4-difluorophenyl)methyl]-5-[[4-(trifluoromethoxy)phenyl]amino]-1,2,4-thiadiazol-3-one] | 10 |
| O=c1nc(Nc2ccc(C(F)(F)F)cc2)sn1Cc1ccc(Cl)cc1 [Example 8p, 2-[(4-chlorophenyl)methyl]-5-[[4-(trifluoromethyl)phenyl]amino]-1,2,4-thiadiazol-3-one] | 7 |
| O=c1nc(Nc2ccc(C(F)(F)F)cc2)sn1Cc1cccc(F)c1 [Example 8q, 2-[(3-fluorophenyl)methyl]-5-[[4-(trifluoromethyl)phenyl]amino]-1,2,4-thiadiazol-3-one] | 15 |
| O=c1nc(Nc2ccc(C(F)(F)F)cc2)sn1CCc1ccccc1 [Example 8r, 2-[phenylethyl]-5-[[4-(trifluoromethyl)phenyl]amino]-1,2,4-thiadiazol-3-one] | 58 |
| N#Cc1ccc(Nc2nc(=O)n(Cc3ccc(F)c(F)c3)s2)cc1 [Example 8w, 4-[[2-[(3,4-difluorophenyl)methyl]-3-oxo-1,2,4-thiadiazol-5-yl]amino]benzonitrile] | 28 |

same assay, conditions: Homo sapiens, serum-free, 10 μM, relative to vehicle control (1 unit), 18 h + 6 h BrdU, read-out: Units of BrdU incorporation

| Structure (SMILES) | activity at 10 µM [%] |
| --- | --- |
| CN(CCn1c(=O)[nH]s/c1=N\c1ccc(Cl)c(Cl)c1)c1ccc(Cl)cc1 [Example 2g, 4-[2-[(4-chlorophenyl)-methyl-amino]ethyl]-5-(3,4-dichlorophenyl)imino-1,2,4-thiadiazolidin-3-one] | 14 |
| O=C(Nc1nc(=O)n(Cc2cccc(C(F)(F)F)c2)s1)c1ccccc1 [Example 3, N-[3-oxo-2-[[3-(trifluoromethyl)phenyl]methyl]-1,2,4-thiadiazol-5-yl]benzamide] | 70 |
| O=C(Nc1nc(=O)n(Cc2cccc(C(F)(F)F)c2)s1)c1ccc(F)cc1 [Example 4a, 4-fluoro-N-[3-oxo-2-[[3-(trifluoromethyl)phenyl]methyl]-1,2,4-thiadiazol-5-yl]benzamide] | 30.9 |
| O=C(Cc1ccc(F)cc1)Nc1nc(=O)n(Cc2cccc(C(F)(F)F)c2)s1 [Example 4b, 2-(4-fluorophenyl)-N-[3-oxo-2-[[3-(trifluoromethyl)phenyl]methyl]-1,2,4-thiadiazol-5-yl]acetamide] | 72 |
| O=C(Nc1nc(=O)n(Cc2ccc(F)c(F)c2)s1)c1ccc(Cl)cc1 [Example 4c, 4-chloro-N-[2-[(3,4-difluorophenyl)methyl]-3-oxo-1,2,4-thiadiazol-5-yl]benzamide] | 39.3 |
| O=C(Nc1nc(=O)n(Cc2ccc(F)cc2)s1)c1ccc(Cl)cc1 [Example 4d, 4-chloro-N-[2-[(4-fluorophenyl)methyl]-3-oxo-1,2,4-thiadiazol-5-yl]benzamide] | 61.2 |
| O=C(Nc1nc(=O)n(Cc2ccc(Cl)cc2)s1)c1ccc(Cl)cc1 [Example 4e, 4-chloro-N-[2-[(4-chlorophenyl)methyl]-3-oxo-1,2,4-thiadiazol-5-yl]benzamide] | 35.5 |
| O=C(Nc1nc(=O)n(Cc2ccc(F)cc2)s1)c1c(Cl)cccc1Cl [Example 4l, 2,6-dichloro-N-[2-[(4-fluorophenyl)methyl]-3-oxo-1,2,4-thiadiazol-5-yl]benzamide] | 20 |
| O=C(Nc1nc(=O)n(Cc2ccc(F)cc2)s1)c1ccc(Cl)cc1Cl [Example 4m, 2,4-dichloro-N-[2-[(4-fluorophenyl)methyl]-3-oxo-1,2,4-thiadiazol-5-yl]benzamide] | 23 |
| O=C(Nc1nc(=O)n(Cc2ccc(F)cc2)s1)c1cc(C(F)(F)F)cc(C(F)(F)F)c1 [Example 4o, N-[2-[(4-fluorophenyl)methyl]-3-oxo-1,2,4-thiadiazol-5-yl]-3,5-bis(trifluoromethyl)-benzamide] | 28 |
| O=C(Nc1nc(=O)n(Cc2ccc(F)cc2)s1)c1ccc(F)c(F)c1 [Example 4p, 3,4-difluoro-N-[2-[(4-fluorophenyl)methyl]-3-oxo-1,2,4-thiadiazol-5-yl]benzamide] | 26 |
| O=c1[nH]s/c(=N\c2ccc(Cl)c(Cl)c2)n1CCOc1ccccc1 [Example 5a, 5-(3,4-dichlorophenyl)imino-4-(2-phenoxyethyl)-1,2,4-thiadiazolidin-3-one] | 37 |
| O=c1nc(Nc2ccc(Cl)c(Cl)c2)sn1CCOc1ccccc1 [Example 5b, 5-(3,4-Dichloro-phenylamino)-2-(2-phenoxy-ethyl)-[1,2,4]thiadiazol-3-one] | 14 |

From US9675596B2, “1,2,4-thiazolidin-3-one derivatives and their use in the treatment of cancer” (Baltic Bio AB, priority 2009, dated 2017)
